Assay results as given in patent publication US12016922B2, “Stabilized aqueous antibody compositions” (Arecor Limited, priority 2012, dated 2024).

Assays:
Assay type in all cases: physicochemical
[1] = test system: rituximab; test: Aggregation of rituximab formulations on storage, % HMWS by size exclusion chromatography
Experimental: (§1) Formulations of protein therapeutics, rituximab and certolizumab pegol, were prepared either in the absence or in the presence of various oligomers of ethyleneimine. The following products were used as the starting material: MabThera® (rituximab) and Cimzia® (certolizumab pegol). The compositions of the two products are as follows:
(§2) In order to prepare the formulations for testing, it was necessary to remove the original excipients and replace them with the selected excipients. The following procedure was used to prepare the formulations for testing: Original compositions were removed from the manufacturer's container and dialysed in 3.5 kDa cut-off dialysis cassettes (Thermo Pierce) at 2-8° C., using three changes for a minimum of 4 hours in each, including one overnight incubation.
(§3) The background solutions, containing the new excipients and adjusted to the required pH, were added to the dialysed proteins to achieve the required concentration of excipients and the protein in the final composition. The formulated samples were placed into storage at 40° C. or at 5° C., and stability was tested after a given period of time. The stability of the proteins was tested in compositions containing oligomers of ethyleneimine and compared to a ‘Control formulation’ with identical background in the absence of the oligomers.
(§4) The amount of high molecular weight species is measured using a 300×7.8 mm S3000 (or equivalent) size-exclusion column with a guard column. The mobile phase is potassium phosphate pH 6.5, with a flow rate of 0.4 ml/min, injection volume of 1 μl and detected at 210 and 280 nm. The results are expressed as % high molecular species (HMWS), i.e. sum of all peak areas corresponding to aggregated protein over the sum of all protein-related peaks on the chromatogram. […] However, within a given time-point the samples are tested using the column in the same condition, so the values generated within the time-point represent a very good indication of the relative stability of the protein in the compositions tested.
(§5) Rituximab was formulated at 100 mg/ml in the following background solution: EDTA (0.2 mM), methionine (1 mM), histidine (10 mM). The pH was adjusted to 6.5.
Rituximab was formulated at 100 mg/ml in the following background solution: EDTA (0.2 mM), methionine (1 mM), histidine (10 mM), in the presence of arginine (80 mM) as a tonicity modifier. The pH of all formulations was adjusted to 6.5. For comparison, the formulation of commercial liquid rituximab product (‘Original formulation’ also with rituximab at 100 mg/ml) was also included.
Rituximab was formulated at 100 mg/ml in the following background solution: EDTA (0.2 mM), methionine (1 mM) histidine (10 mM) and trehalose (200 mM). The pH was adjusted to 6.5.
Rituximab was formulated at 140 mg/ml in the following background solution: EDTA (0.2 mM), methionine (1 mM), histidine (10 mM) and trehalose (200 mM). The pH was adjusted to 6.5.

[2] = test system: rituximab; test: Visual assessment of rituximab formulations on storage; conditions: rituximab 100 mg/ml, trehalose 200 mM
Experimental: as §2, §3
Vials are placed in a suitable location with a suitably selected contrasting background, and under sufficient and appropriate illumination to highlight any potential or detected visual deviations. A control (or freshly prepared material) is placed alongside for direct comparison. Solutions are classed as clear if there are no visual imperfections; as cloudy if there is a significant change in the opacity of the material; and if there are insoluble fractions, or if particles are visible towards the bottom of the vial, a precipitate is deemed to have been formed.
as §5

[3] = test system: Certolizumab pegol; test: Aggregation of certolizumab pegol formulations on storage, % HMWS by size exclusion chromatography; conditions: Certolizumab pegol 100 mg/ml, 40° C.
Experimental: as §1, §2, §3, §4
Certolizumab pegol was formulated at 100 mg/ml in histidine buffer (10 mM, pH 6.0) in the presence of either NaCl (150 mM) or 1,2-propandiol (200 mM) as tonicity modifiers.

[4] = Example 4: rituximab 100 mg/ml, trehalose 200 mM, pH 6.5, 40° C., compared with background formulation without oligomer
[5] = rituximab 100 mg/ml, trehalose 200 mM, pH 6.5, 40° C., additive 0.2 mg/ml
[6] = rituximab 100 mg/ml, trehalose 200 mM, pH 6.5, 40° C., additive 1 mg/ml
[7] = rituximab 100 mg/ml, trehalose 200 mM, pH 6.5, 40° C., additive 5 mg/ml
[8] = rituximab 100 mg/ml, arginine 80 mM, pH 6.5, 40° C., additive 0.1 mg/ml
[9] = rituximab 100 mg/ml, arginine 80 mM, pH 6.5, 40° C., additive 0.5 mg/ml
[10] = rituximab 100 mg/ml, arginine 80 mM, pH 6.5, 40° C., additive 2.5 mg/ml
[11] = rituximab 100 mg/ml, trehalose 200 mM, pH 6.5, 5° C., additive 0.1 mg/ml
[12] = rituximab 100 mg/ml, trehalose 200 mM, pH 6.5, 5° C., additive 0.5 mg/ml
[13] = rituximab 100 mg/ml, trehalose 200 mM, pH 6.5, 5° C., additive 2.5 mg/ml
[14] = rituximab 100 mg/ml, trehalose 200 mM, pH 6.5, 40° C., additive 0.1 mg/ml
[15] = rituximab 100 mg/ml, trehalose 200 mM, pH 6.5, 40° C., additive 0.5 mg/ml
[16] = rituximab 100 mg/ml, trehalose 200 mM, pH 6.5, 40° C., additive 2.5 mg/ml
[17] = rituximab 140 mg/ml, trehalose 200 mM, pH 6.5, 40° C., additive 0.03 mg/ml
[18] = rituximab 140 mg/ml, trehalose 200 mM, pH 6.5, 40° C., additive 1 mg/ml
[19] = rituximab 140 mg/ml, trehalose 200 mM, pH 6.5, 40° C., additive 5 mg/ml
[20] = rituximab 140 mg/ml, trehalose 200 mM, pH 6.5, 40° C., additive […]
[21] = histidine 10 mM pH 6.0, 1,2-propanediol 200 mM, additive 3 mg/ml

NCCN [Ethylenediamine, reference compound] was tested, and the “effect on the rate of formation of HMWS” value [1, 4] was “less effective in reducing the formation of HMWS”, the “% HMWS 16 weeks” value [1, 5] was 2.44% and the “% HWMS 0 weeks” value [1, 5] was 0.49%. For the same molecule, the “% HMWS 16 weeks” value [1, 6] was 2.27%, the “% HWMS 0 weeks” value [1, 6] was 0.72% and the “% HMWS 16 weeks” value [1, 7] was 2.08%. For the same molecule, the “% HWMS 0 weeks” value [1, 7] was 0.78%.

Cl.Cl.Cl.Cl.Cl.NCCNCCNCCNCCN [Tetraethylenepentamine, tetraethylenepentamine pentahydrochloride] was tested, and the “effect on the rate of formation of HMWS” value ([1]; Example 1: rituximab 100 mg/ml, trehalose, pH 6.5, 40° C. and 5° C.) was “reduce considerably the rate of formation of HMWS”, the “effect on the rate of formation of HMWS” value ([1]; Example 3: rituximab 100 mg/ml, arginine 80 mM, pH 6.5, 40° C., compared with background solutions without oligomer) was “reduce considerably the rate of formation of HMWS” and the “% HMWS 0 weeks” value [1, 8] was 1.58%. The “% HMWS 12 weeks” value [1, 8] was 2.08%, the “% HMWS 0 weeks” value [1, 9] was 1.53% and the “% HMWS 12 weeks” value [1, 9] was 1.89%. The “% HMWS 0 weeks” value [1, 10] was 1.47%, the “% HMWS 12 weeks” value [1, 10] was 0.85% and the “% HMWS 8 weeks” value [1, 11] was 1.23%. For the same molecule, the “% HMWS T0” value [1, 11] was 1.40%, the “% HMWS 8 weeks” value [1, 12] was 1.22% and the “% HMWS T0” value [1, 12] was 1.44%. The “% HMWS 8 weeks” value [1, 13] was 1.21%, the “% HMWS T0” value [1, 13] was 1.40% and the “% HMWS 8 weeks” value [1, 14] was 1.79%. For the same molecule, the “% HMWS T0” value [1, 14] was 1.40%, the “% HMWS 8 weeks” value [1, 15] was 1.85% and the “% HMWS T0” value [1, 15] was 1.44%. The “% HMWS 8 weeks” value [1, 16] was 1.45%, the “% HMWS T0” value [1, 16] was 1.40% and the “Visual (8 weeks)” value ([2]; pH 6.5, 5° C., additive 0.1 mg/ml) was “Clear”. The “Visual (8 weeks)” value ([2]; pH 6.5, 5° C., additive 0.5 mg/ml) was “Clear”, the “Visual (8 weeks)” value ([2]; pH 6.5, 5° C., additive 2.5 mg/ml) was “Clear” and the “Visual (8 weeks)” value ([2]; pH 6.5, 40° C., additive 0.1 mg/ml) was “Clear”. For the same molecule, the “Visual (8 weeks)” value ([2]; pH 6.5, 40° C., additive 0.5 mg/ml) was “Clear” and the “Visual (8 weeks)” value ([2]; pH 6.5, 40° C., additive 2.5 mg/ml) was “Clear”.

In the case of NCCNCCNCCN [Triethylenetetramine], the “rate of aggregation compared with Original formulation” value ([1]; Example 4: rituximab 100 mg/ml, trehalose 200 mM, pH 6.5, 40° C.) is reported as “lower”, the “effect on the rate of formation of HMWS” value [1, 4] is reported as “considerably reduce the rate of formation of HMWS in a dose dependent manner” and the “effect on the rate of aggregation” value ([1]; Example 5: rituximab 140 mg/ml, trehalose 200 mM, pH 6.5, 40° C.) is reported as “considerable, dose-dependent reduction in the aggregation rate”. The “% HMWS 16 weeks” value [1, 5] was 0.81%, the “% HWMS 0 weeks” value [1, 5] was 0.74% and the “% HMWS 16 weeks” value [1, 6] was 0.56%. For the same molecule, the “% HWMS 0 weeks” value [1, 6] was 0.84%, the “% HMWS 16 weeks” value [1, 7] was 0.51% and the “% HWMS 0 weeks” value [1, 7] was 0.74%. The “% HMWS 0 weeks” value [1, 17] was 0.36%, the “% HMWS 12 weeks” value [1, 17] was 0.29% and the “% HMWS 26 weeks” value [1, 17] was 4.18%. The “% HMWS 0 weeks” value [1, 18] was 0.36%, the “% HMWS 12 weeks” value [1, 18] was 0.27% and the “% HMWS 26 weeks” value [1, 18] was 0.45%. The “% HMWS 0 weeks” value [1, 19] was 0.26%, the “% HMWS 12 weeks” value [1, 19] was 0.17% and the “% HMWS 26 weeks” value [1, 19] was 0.64%. The “% HMWS 0 weeks” value [1, 20] was 0.35%, the “% HMWS 12 weeks” value [1, 20] was 0.32% and the “% HMWS 26 weeks” value [1, 20] was 3.26%. The “% HMWS 0 weeks” value ([3]; histidine 10 mM pH 6.0, 1,2-propanediol 200 mM, additive 1 mg/ml) was 0.55%, the “% HMWS 0 weeks” value [3, 21] was 0.49% and the “% HMWS 8 weeks” value [3, 21] was 0.85%. The “% HMWS 0 weeks” value ([3]; histidine 10 mM pH 6.0, NaCl 150 mM, additive 1 mg/ml) was 0.63% and the “% HMWS 0 weeks” value ([3]; histidine 10 mM pH 6.0, NaCl 150 mM, additive 3 mg/ml) was 0.49%.
